Test results as given in patent publication US11014911B2, “CDK2 inhibitors” (Pfizer Inc., priority 2019, dated 2021).
pKi: −log10 of the molar value.

Molecular target: CDK2/Cyclin E1 full length (Homo sapiens (Human), UniProt P24941)
Assay: CDK2/Cyclin E1 full length mobility shift assay
Assay type: biochemical

| SMILES | pKi |
| --- | --- |
| O=C(Cc1ccc(C(F)(F)F)nc1)Nc1cc([C@@H]2CC[C@H](OC(=O)NC[C@H]3C[C@@H]3CO)C2)[nH]n1 [Example 580, (1S,3R)-3-[3-({[6-(trifluoromethyl)pyridin-3-yl]acetyl}amino)-1H-pyrazol-5-yl]cyclopentyl {[(1S,2S)-2-(hydroxymethyl)cyclopropyl]-methyl}carbamate] | 8.47 |
| Cc1cc(CC(=O)Nc2cc([C@H]3CC[C@@H](OC(=O)N4CCC[C@H]4C)C3)[nH]n2)on1 [Example 633, (1R,3S)-3-(3-{[(3-methyl-1,2-oxazol-5-yl)acetyl]amino}-1H-pyrazol-5-yl)cyclopentyl (2R)-2-methylpyrrolidine-1-carboxylate] | 8.68 |
| Cn1ccc(CC(=O)Nc2cc([C@H]3CC[C@@H](OC(=O)NC4(C)CC4)C3)[nH]n2)n1 [Example 421, (1R,3S)-3-(3-{[(1-methyl-1H-pyrazol-3-yl)acetyl]amino}-1H-pyrazol-5-yl)cyclopentyl (1-methylcyclopropyl)carbamate] | 9.03 |
| CC(C)NC(=O)O[C@@H]1CC[C@H](c2cc(NC(=O)Cc3cccc4ncsc34)n[nH]2)C1 [Example 284, (1R,3S)-3-{3-[(1,3-benzothiazol-7-ylacetyl)amino]-1H-pyrazol-5-yl}cyclopentyl propan-2-ylcarbamate] | 9.22 |
| CCCNC(=O)O[C@@H]1CC[C@H](c2cc(NC(=O)c3ccnn3CCN(C)C)n[nH]2)C1 [Example 195, (1R,3S)-3-{3-[({1-[2-(dimethylamino)ethyl]-1H-pyrazol-5-yl}carbonyl)amino]-1H-pyrazol-5-yl}cyclopentyl propylcarbamate] | 8.36 |
| COc1cc(C(=O)Nc2cc([C@H]3CC[C@@H](OC(=O)NC(C)(C)C)C3)[nH]n2)n(C)n1 [Example 302, (1R,3S)-3-(3-{[(3-methoxy-1-methyl-1H-pyrazol-5-yl)carbonyl]amino}-1H-pyrazol-5-yl)cyclopentyl tert-butylcarbamate] | 9.30 |
| Cc1cnc(CC(=O)Nc2cc([C@H]3CC[C@@H](OC(=O)NC4(C)CCOC4)C3)[nH]n2)o1 (single isomer, unassigned) [Example 478] | 8.95 |
| Cc1cc(CC(=O)Nc2cc([C@H]3CC[C@@H](OC(=O)N[C@H](C)C4CC4)C3)[nH]n2)on1 [Example 469, (1R,3S)-3-(3-{[(3-methyl-1,2-oxazol-5-yl)acetyl]amino}-1H-pyrazol-5-yl)cyclopentyl [(1R)-1-cyclopropylethyl]carbamate] | 9.51 |
| CC1(NC(=O)O[C@@H]2CC[C@H](c3cc(NC(=O)Cc4ccccc4)n[nH]3)C2)CCOC1 (single isomer, unassigned) [Example 125] | 9.47 |
| COc1ncccc1CC(=O)Nc1cc([C@H]2CC[C@@H](OC(=O)NC(C)(C)C)C2)[nH]n1 [Example 307, (1R,3S)-3-(3-{[(2-methoxypyridin-3-yl)acetyl]amino}-1H-pyrazol-5-yl)cyclopentyl tert-butylcarbamate] | 9.14 |
| CCCNC(=O)O[C@@H]1CC[C@H](c2cc(NC(=O)Cc3ccc(COC)cc3S(C)(=O)=O)[nH]n2)C1 [Example 215, (1R,3S)-3-[5-({[4-(methoxymethyl)-2-(methylsulfonyl)phenyl]acetyl}amino)-1H-pyrazol-3-yl]cyclopentyl propylcarbamate] | 8.90 |
| Cc1cnc(CC(=O)Nc2cc([C@H]3CC[C@@H](OC(=O)N[C@H](C)C4CC4)C3)[nH]n2)cn1 [Example 471, (1R,3S)-3-(3-{[(5-methylpyrazin-2-yl)acetyl]amino}-1H-pyrazol-5-yl)cyclopentyl [(1R)-1-cyclopropylethyl]carbamate] | 8.84 |
| CC(C)n1cc(CC(=O)Nc2cc([C@H]3CC[C@@H](OC(=O)NC4(C)CC4)C3)[nH]n2)nn1 [Example 436, (1R,3S)-3-[3-({[1-(propan-2-yl)-1H-1,2,3-triazol-4-yl]acetyl}amino)-1H-pyrazol-5-yl]cyclopentyl (1-methylcyclopropyl)carbamate] | 8.48 |
| Cn1ncc(CC(=O)Nc2cc([C@H]3CC[C@@H](OC(=O)NC4(C)CCOC4)C3)[nH]n2)c1C(F)(F)F (single isomer, unassigned) [Example 495] | 8.75 |
| CCC(CO)CNC(=O)O[C@@H]1CC[C@H](c2cc(NC(=O)Cc3cnc(C)o3)n[nH]2)C1 (single isomer, unassigned) [Example 526] | 8.40 |
| COc1cc(CC(=O)Nc2cc([C@H]3CC[C@@H](OC(=O)N4[C@H](C)C[C@H]4C)C3)[nH]n2)ccn1 [Example 609, (1R,3S)-3-(3-{[(2-methoxypyridin-4-yl)acetyl]amino}-1H-pyrazol-5-yl)cyclopentyl (2R,4R)-2,4-dimethylazetidine-1-carboxylate] | 8.32 |
| CC1(NC(=O)O[C@@H]2CC[C@H](c3cc(NC(=O)Cc4ncccc4F)n[nH]3)C2)CC1 [Example 429, (1R,3S)-3-(3-{[(3-fluoropyridin-2-yl)acetyl]amino}-1H-pyrazol-5-yl)cyclopentyl (1-methylcyclopropyl)carbamate] | 8.94 |
| CCCNC(=O)O[C@H]1CC[C@@H](c2cc(NC(=O)Cc3ccnc(OC)c3O)n[nH]2)C1 [Example 194, (1S,3R)-3-(3-{[(3-hydroxy-2-methoxypyridin-4-yl)acetyl]amino}-1H-pyrazol-5-yl)cyclopentyl propylcarbamate] | 9.10 |

| SMILES | pKi |
| --- | --- |
| CC(CC(F)(F)F)N(C)C(=O)O[C@@H]1CC[C@H](c2cc(NC(=O)Cc3ccno3)n[nH]2)C1 (single isomer, unassigned) [Example 89] | 9.07 |
| CCNC(=O)O[C@@H]1CC[C@H](c2cc(NC(=O)Cc3cnc(C)s3)n[nH]2)C1 [Example 229, (1R,3S)-3-(3-{[(2-methyl-1,3-thiazol-5-yl)acetyl]amino}-1H-pyrazol-5-yl)cyclopentyl ethylcarbamate] | 8.69 |
| COc1cc(C(=O)Nc2cc([C@H]3CC[C@@H](OC(=O)NC4(C)CCOC4)C3)[nH]n2)n(C)n1 (single isomer, unassigned) [Example 479] | 9.05 |
| COc1cc(CC(=O)Nc2cc([C@H]3CC[C@@H](OC(=O)NC(C)C(C)(F)F)C3)[nH]n2)ccn1 (single isomer, unassigned) [Example 392] | 8.50 |
| CC1(NC(=O)O[C@@H]2CC[C@H](c3cc(NC(=O)Cc4coc(C5CC5)n4)n[nH]3)C2)CC1 [Example 432, (1R,3S)-3-(3-{[(2-cyclopropyl-1,3-oxazol-4-yl)acetyl]amino}-1H-pyrazol-5-yl)cyclopentyl (1-methylcyclopropyl)carbamate] | 8.90 |
| Cn1ncc(CC(=O)Nc2cc([C@H]3CC[C@@H](OC(=O)NC4(C)CCOC4)C3)[nH]n2)c1C(F)(F)F (single isomer, unassigned) [Example 496] | 8.65 |
| Cc1cc(CC(=O)Nc2cc([C@H]3CC[C@@H](OC(=O)N[C@@H](C)C4CC4)C3)[nH]n2)on1 [Example 468, (1R,3S)-3-(3-{[(3-methyl-1,2-oxazol-5-yl)acetyl]amino}-1H-pyrazol-5-yl)cyclopentyl [(1S)-1-cyclopropylethyl]carbamate] | 9.46 |
| Cc1cnc(CC(=O)Nc2cc([C@H]3CC[C@@H](OC(=O)NC(C)C)C3)[nH]n2)s1 [Example 273, (1R,3S)-3-(3-{[(5-methyl-1,3-thiazol-2-yl)acetyl]amino}-1H-pyrazol-5-yl)cyclopentyl propan-2-ylcarbamate] | 8.51 |
| CC[C@H](C)NC(=O)O[C@@H]1CC[C@H](c2cc(NC(=O)Cc3cnn(C)c3C(F)(F)F)n[nH]2)C1 [Example 365, (1R,3S)-3-[3-({[1-methyl-5-(trifluoromethyl)-1H-pyrazol-4-yl]acetyl}amino)-1H-pyrazol-5-yl]cyclopentyl (2S)-butan-2-ylcarbamate] | 8.68 |
| CCC(O)CNC(=O)O[C@@H]1CC[C@H](c2cc(NC(=O)Cc3cc(F)cc(F)c3)n[nH]2)C1 (single isomer, unassigned) [Example 542] | 8.62 |
| COCc1cc(C(=O)Nc2cc([C@H]3CC[C@@H](OC(=O)N[C@@H](C)COC)C3)n[nH]2)n(C)n1 [Example 521, (1R,3S)-3-[5-({[3-(methoxymethyl)-1-methyl-1H-pyrazol-5-yl]carbonyl}amino)-1H-pyrazol-3-yl]cyclopentyl [(2S)-1-methoxypropan-2-yl]carbamate] | 8.71 |
| O=C(Cc1ccon1)Nc1cc([C@H]2CC[C@@H](OC(=O)NC3(CC(F)(F)F)CC3)C2)[nH]n1 [Example 451, (1R,3S)-3-{3-[(1,2-oxazol-3-ylacetyl)amino]-1H-pyrazol-5-yl}cyclopentyl [1-(2,2,2-trifluoroethyl)cyclopropyl] carbamate] | 9.34 |
| Cc1cnc(CC(=O)Nc2cc([C@H]3CC[C@@H](OC(=O)N[C@@H](C)C4CC4)C3)[nH]n2)cn1 [Example 470, (1R,3S)-3-(3-{[(5-methylpyrazin-2-yl)acetyl]amino}-1H-pyrazol-5-yl)cyclopentyl [(1S)-1-cyclopropylethyl]carbamate] | 9.08 |
| CCCNC(=O)O[C@H]1CC[C@@H](c2cc(NC(=O)Cc3cc(OC)ncc3O)n[nH]2)C1 [Example 193, (1S,3R)-3-(3-{[(5-hydroxy-2-methoxypyridin-4-yl)acetyl]amino}-1H-pyrazol-5-yl)cyclopentyl propylcarbamate] | 9.39 |
| CC[C@H](C)CNC(=O)O[C@@H]1CC[C@H](c2cc(NC(=O)Cc3cnc(C)o3)n[nH]2)C1 [Example 416, (1R,3S)-3-(3-{[(2-methyl-1,3-oxazol-5-yl)acetyl]amino}-1H-pyrazol-5-yl)cyclopentyl [(2S)-2-methylbutyl]carbamate] | 8.64 |
| COc1ccc(CC(=O)Nc2cc([C@H]3CC[C@@H](OC(=O)NC4CCOCC4)C3)[nH]n2)cc1 [Example 502, (1R,3S)-3-(3-{[(4-methoxyphenyl)acetyl]amino}-1H-pyrazol-5-yl)cyclopentyl tetrahydro-2H-pyran-4-ylcarbamate] | 8.43 |
| O=C(Cc1cc(F)cc(F)c1)Nc1cc([C@@H]2CC[C@H](OC(=O)NC[C@@H]3CCCO3)C2)[nH]n1 [Example 499, (1S,3R)-3-(3-{[(3,5-difluorophenyl)acetyl]amino}-1H-pyrazol-5-yl)cyclopentyl [(2S)-tetrahydrofuran-2-ylmethyl]carbamate] | 8.59 |
| CCCNC(=O)O[C@H]1CC[C@@H](c2cc(NC(=O)Cc3cn4c(C)csc4n3)n[nH]2)C1 [Example 199, (1S,3R)-3-(3-{[(3-methylimidazo[2,1-b][1,3]thiazol-6-yl)acetyl]amino}-1H-pyrazol-5-yl)cyclopentyl propylcarbamate] | 8.46 |
